Source: article PMC8523698, “Preclinical characterization of an intravenous coronavirus 3CL protease inhibitor for the potential treatment of COVID19” (Nature Communications, 2021)
“And” between values parts separate entries of the source, which are not always exact repeats. Equal entries are not always repeated.

How the values were obtained:
[1] = test system: Salmonella typhimurium strains and E. coli strain WP2 uvrA; experiment: Bacterial reverse mutation assay; conditions: with and without metabolic activation
[2] = Plasma protein binding by equilibrium dialysis; conditions: for fraction unbound at 6 h, 5 uM / fraction unbound at 6 h: plasma
[3] = biological target: CYP2D6 (Homo sapiens, UniProt P10635); experiment: Reversible CYP inhibition in human liver microsomes
[4] = test system: CYP3A4/5; experiment: as above; conditions: CYP 3A4/5 (mdz)

CYP2D6, sequence (P10635 whole entry): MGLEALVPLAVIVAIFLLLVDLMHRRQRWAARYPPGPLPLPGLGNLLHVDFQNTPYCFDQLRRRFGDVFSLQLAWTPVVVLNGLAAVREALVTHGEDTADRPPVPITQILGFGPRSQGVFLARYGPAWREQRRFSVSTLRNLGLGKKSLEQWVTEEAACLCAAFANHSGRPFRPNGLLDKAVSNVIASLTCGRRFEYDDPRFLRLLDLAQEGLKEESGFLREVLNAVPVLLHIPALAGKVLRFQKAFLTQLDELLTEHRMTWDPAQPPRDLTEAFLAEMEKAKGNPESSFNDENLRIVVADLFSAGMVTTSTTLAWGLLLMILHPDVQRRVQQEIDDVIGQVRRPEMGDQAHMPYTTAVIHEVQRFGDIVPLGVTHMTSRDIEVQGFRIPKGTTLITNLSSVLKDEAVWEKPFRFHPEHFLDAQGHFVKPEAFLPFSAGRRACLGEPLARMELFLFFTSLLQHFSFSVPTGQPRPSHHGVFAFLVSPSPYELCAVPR

With COc1cccc2[nH]c(C(=O)N[C@@H](CC(C)C)C(=O)N[C@@H](C[C@@H]3CCNC3=O)C(=O)CO)cc12 [PF-00835231] the “bacterial reverse mutation assay result” value [1] was “negative”, the Individual fraction unbound ([2]; Monkey Cynomologous plasma, 5.0 uM, replicates Day 1-3) was 0.429 and 0.445 and 0.467 and 0.489 and 0.396 and 0.428 and 0.46 and 0.501 and 0.390 and the fraction unbound at 6 h, 5 uM ([2]; cynomolgus monkey, pH 7.4, Individual fraction unbound, Monkey Cynomologous plasma, 5.0 uM, replicates Day 1-3) was 0.44. It also gave a fraction unbound at 6 h, 5 uM ([2]; monkey, pH 7.4, Fraction unbound, Geomean, Monkey plasma, 5.0 uM, n 12) of 0.441, a fraction unbound at 6 h ([2]; monkey, pH 7.4, Plasma fu, Vdss input) of 0.441 and a fraction unbound at 6 h ([2]; monkey, pH 7.4, Unbound fraction fu (%CV), monkey plasma) of 0.441. The fraction unbound at 6 h, 5 uM ([2]; monkey, pH 7.4, fraction unbound Geomean, monkey plasma, 5.0 uM, n=12) was 0.441, the “Percent of Control Activity” value ([3]; CYP 2D6, 0.1 µM, 30-Minute Preincubation, 0.1 µM) was 92.9% and 101.4% and the “Percent of Control Activity” value ([3]; CYP 2D6, 0.1 µM, Zero-Minute Preincubation, 0.1 µM) was 87.8% and 108.7%. The “Percent of Control Activity” value ([3]; CYP 2D6, 0.214 µM, 30-Minute Preincubation, 0.214 µM) was 106.1%, the “Percent of Control Activity” value ([3]; CYP 2D6, 0.214 µM, Zero-Minute Preincubation, 0.214 µM) was 101.0% and 100.2% and the “Percent of Control Activity” value ([3]; CYP 2D6, 0.979 µM, 30-Minute Preincubation, 0.979 µM) was 107.3% and 99.0%. The “Percent of Control Activity” value ([3]; CYP 2D6, 0.979 µM, Zero-Minute Preincubation, 0.979 µM) was 96.4% and 103.2%, the “Percent of Control Activity” value ([3]; CYP 2D6, 2.09 µM, 30-Minute Preincubation, 2.09 µM) was 102.6% and 103.8% and the “Percent of Control Activity” value ([3]; CYP 2D6, 2.09 µM, Zero-Minute Preincubation, 2.09 µM) was 96.1% and 107.2%. The “Percent of Control Activity” value ([3]; CYP 2D6, 4.48 µM, 30-Minute Preincubation, 4.48 µM) was 102.2% and 99.7%, the “Percent of Control Activity” value ([3]; CYP 2D6, 4.48 µM, Zero-Minute Preincubation, 4.48 µM) was 105.0% and 106.1% and the “Percent of Control Activity” value ([3]; CYP 2D6, 20.5 µM, 30-Minute Preincubation, 20.5 µM) was 113.8% and 117.9%. The “Percent of Control Activity” value ([3]; CYP 2D6, 20.5 µM, Zero-Minute Preincubation, 20.5 µM) was 108.8%, the “Percent of Control Activity” value ([3]; CYP 2D6, 43.8 µM, 30-Minute Preincubation, 43.8 µM) was 122.8% and 114.4% and the “Percent of Control Activity” value ([3]; CYP 2D6, 43.8 µM, Zero-Minute Preincubation, 43.8 µM) was 99.1% and 109.2%. For the same compound, the “Percent of Control Activity” value ([3]; CYP 2D6, 93.5 µM, 30-Minute Preincubation, 93.5 µM) was 122.0% and 119.6%, the “Percent of Control Activity” value ([3]; CYP 2D6, 93.5 µM, Zero-Minute Preincubation, 93.5 µM) was 100.2% and the “Percent of Control Activity” value ([3]; CYP 2D6, 200 µM, 30-Minute Preincubation, 200 µM) was 102.0% and 91.1%. For the same compound, the “Percent of Control Activity” value ([3]; CYP 2D6, 200 µM, Zero-Minute Preincubation, 200 µM) was 73.5% and 82.2%, the IC50 ([3]; human, microsomes, pH 7.4) was over 200 µM and the activity at 0.1 µM ([3]; human, microsomes, pH 7.4, Percent of Control Activity, CYP 2D6, 0.1 µM, 30-Minute Preincubation) was 103%. The activity at 0.214 µM ([3]; human, microsomes, pH 7.4, Percent of Control Activity, CYP 2D6, 0.214 µM, 30-Minute Preincubation) was 102%, the activity at 0.214 µM ([3]; human, microsomes, pH 7.4, Percent of Control Activity, CYP 2D6, 0.214 µM, Zero-Minute Preincubation) was 98.6% and the activity at 0.979 µM ([3]; human, microsomes, pH 7.4, Percent of Control Activity, CYP 2D6, 0.979 µM, 30-Minute Preincubation) was 104%. For the same compound, the activity at 0.979 µM ([3]; human, microsomes, pH 7.4, Percent of Control Activity, CYP 2D6, 0.979 µM, Zero-Minute Preincubation) was 97.7%, the activity at 2.09 µM ([3]; human, microsomes, pH 7.4, Percent of Control Activity, CYP 2D6, 2.09 µM, 30-Minute Preincubation) was 104% and the activity at 2.09 µM ([3]; human, microsomes, pH 7.4, Percent of Control Activity, CYP 2D6, 2.09 µM, Zero-Minute Preincubation) was 99.9%. It also gave an activity at 4.48 µM ([3]; human, microsomes, pH 7.4, Percent of Control Activity, CYP 2D6, 4.48 µM, 30-Minute Preincubation) of 109%, an activity at 4.48 µM ([3]; human, microsomes, pH 7.4, Percent of Control Activity, CYP 2D6, 4.48 µM, Zero-Minute Preincubation) of 97.2% and an activity at 20.5 µM ([3]; human, microsomes, pH 7.4, Percent of Control Activity, CYP 2D6, 20.5 µM, 30-Minute Preincubation) of 118%. It also gave an activity at 20.5 µM ([3]; human, microsomes, pH 7.4, Percent of Control Activity, CYP 2D6, 20.5 µM, Zero-Minute Preincubation) of 97.6%, an activity at 43.8 µM ([3]; human, microsomes, pH 7.4, Percent of Control Activity, CYP 2D6, 43.8 µM, 30-Minute Preincubation) of 119% and an activity at 43.8 µM ([3]; human, microsomes, pH 7.4, Percent of Control Activity, CYP 2D6, 43.8 µM, Zero-Minute Preincubation) of 101%. For the same compound, the activity at 93.5 µM ([3]; human, microsomes, pH 7.4, Percent of Control Activity, CYP 2D6, 93.5 µM, 30-Minute Preincubation) was 120%, the activity at 93.5 µM ([3]; human, microsomes, pH 7.4, Percent of Control Activity, CYP 2D6, 93.5 µM, Zero-Minute Preincubation) was 91.9% and the activity at 200 µM ([3]; human, microsomes, pH 7.4, Percent of Control Activity, CYP 2D6, 200 µM, 30-Minute Preincubation) was 95.7%. The activity at 200 µM ([3]; human, microsomes, pH 7.4, Percent of Control Activity, CYP 2D6, 200 µM, Zero-Minute Preincubation) was 78.8%, the “Percent of Control Activity” value ([4]; 0.214 µM, 30-Minute Preincubation) was 105.3% and the “Percent of Control Activity” value ([4]; 0.979 µM, 30-Minute Preincubation) was 106.9%. The “Percent of Control Activity” value ([4]; 2.09 µM, 30-Minute Preincubation) was 110.4%, the “Percent of Control Activity” value ([4]; 4.48 µM, 30-Minute Preincubation) was 94.3% and the “Percent of Control Activity” value ([4]; 20.5 µM, 30-Minute Preincubation) was 83.5%. The “Percent of Control Activity” value ([4]; 20.5 µM, Zero-Minute Preincubation) was 117.3%, the “Percent of Control Activity” value ([4]; 43.8 µM, 30-Minute Preincubation) was 84.8% and the “Percent of Control Activity” value ([4]; 93.5 µM, 30-Minute Preincubation) was 72.6%. The “Percent of Control Activity” value ([4]; 200 µM, 30-Minute Preincubation) was 50.6% and 46.7% and the “Percent of Control Activity” value ([4]; 200 µM, Zero-Minute Preincubation) was 109.5%.
